Where no end group is shown, it is not given here. [ ]: non-standard residue; d: D form. pY = N[C@@H](Cc1ccc(OP(=O)(O)O)cc1)C(=O)O
Tests used:
[1] = system: spontaneous recurrent seizures; experiment: SE-induced epilepsy: spontaneous recurrent seizures by video-EEG after 3 days of treatment following KA-SE; format: in vivo, mouse; conditions: for animals with initial spontaneous seizure within 3 days following SE: 10 mg/kg i.v. x3, n=8; for number of spontaneous seizures: n=8, mean±SEM; for spontaneous recurrent seizures per animal (range): for pY816 the six animals with seizures
Experimental: Surgery and microinfusion studies provided in Examples 10-14 were performed as described here. Surgery and microinfusion of KA into right amygdala of adult mice was performed as previously described (Liu, G. et al., (2013) Neuron 79:31-38). Briefly, mice were anesthetized with pentobarbital (60 mg/kg, intraperitoneally [i.p.]) and placed in a stereotaxic frame. A guide cannula was stereotactically placed above the right amygdala (coordinates from bregma: AP=−1.2 mm; ML=3.0 mm). A bipolar electrode was placed in the left dorsal hippocampus (coordinates from bregma: AP=−2.0 mm; ML=−1.6 mm; DV=−1.5 mm). A ground electrode connected to a screw was placed in the skull above the cerebellum. After a postoperative recovery period of 7 days, the animal was gently restrained and an infusion cannula was inserted into the right amygdala through the guide cannula at the depth of 3.7 mm below dura. Either KA (0.3 μg in 0.5 μl PBS) or vehicle control (0.5 μl of PBS) was infused into the right basolateral amygdala at the rate of 0.11 μl per minute. The infusion cannula was left in the right amygdala for two additional minutes before being withdrawn from the guide cannula. Animals were housed individually for time locked electroencephalogram (EEG) telemetry and video monitoring with food and water ad libitum.
Emergence of SE was typically evident in EEG recordings 5-10 min after KA infusion. The behavioral seizures associated with electrographic seizures typically consisted of immobility, followed by facial automatisms, unilateral or bilateral forelimb clonus, and whole body clonus. Tonic-clonic seizures with loss of posture and jumping also occurred during the seizures (Mouri, G. et al., (2008) Brain Res 1213:140-151). For experiments in which p816 or Scr was administered prior to SE, mice were monitored for 45 min following KA infusion. EEG patterns consistent with electrographic SE included any of the following: 1. discrete electrographic seizures; 2. waxing and waning epileptiform activity; 3. continuous, high amplitude, rapid spiking; 4. periodic epileptiform discharges on a relatively flat background as described by Treiman, D. M. et al., (1990) Epilepsy Res 5:49-60 and Walton, et. al., (1988) Exp Neurol 101:267-275. Behavioral patterns consistent with seizures included Classes 3-6 as described in the following section (Racine, R. J. (1972) Electroencephalogr Clin Neurophysiol 32:281-294; Borges, K. et al., (2003) Exp Neurol 182:21-34). The duration of behavioral and electrographic SE were determined by analyses of video and EEG data by trained observers blinded to treatment of mice. A similar method was used in experiments examining effects of mutations (trkB^PLC/PLC and PLCγ1^+/−) on SE induced by KA. For experiments in which p816 or Scr was administered following SE, diazepam (10 mg/kg, i.p.) was administered 40 minutes after the onset of SE followed by lorazepam (6 mg/kg, i.p.) one hour later to suppress SE and limit the mortality and morbidity of this model. Animals underwent continuous video-EEG monitoring 24 hr per day, 7 days per week for first two weeks post-SE (day 1-14). At the end of the second week post-SE, monitoring was discontinued and animals were returned to home cages. After a two-week interval, monitoring was resumed for an additional two weeks (day 29-42). Spontaneous recurrent seizures were identified by review of video-EEG files by independently by each of two trained readers blinded to treatment of mice. The consistency of identifying SRS between readers was ˜90%; in instances in which readers disagreed, the events were excluded from this study. SRS was defined electrographically as high frequency (>5 Hz), high amplitude (>2×baseline) rhythmic epileptiform activity with a minimal duration of 5 s and behaviorally with video-monitoring (see behavioral-seizure scoring). […]

[2] = system: TrkB-mediated activation of PLCγ1; experiment: BDNF-mediated activation of PLCγ1 (p-PLCγ1 Y783 western blot) in cultured cortical neurons; format: cell-based, rat; conditions: for BDNF-mediated increase of p-PLC γ-1/PLC γ-1 ratio (quantified, FIG. 10): 10-120 min pretreatment, 120 min p<0.05; for inhibition of BDNF-mediated increased p-PLCγ1 783: preincubation 60-120 min, BDNF 10 ng/ml
[3] = system: anxiety-like behavior; experiment: Light/dark box test of anxiety-like behavior 8 weeks after SE; format: in vivo, mouse; conditions: 8 weeks post-SE; Scr vs PBS controls, pY816 vs Scr
Experimental: It was therefore tested whether this SE-induced behavioral abnormality could also be prevented by treatment with pY816 initiated following SE. To address this question, following completion of video-EEG recording during days 29-42, anxiety-like behavior was assessed using the light-dark emergence test (Bourin, M. et al., (2003) Eur J Pharmacol 463:55-65).
Specifically, a plexiglas arena (40×40×40 cm) was placed in a room with homogenous illumination (˜300 lux). The arena was subdivided into sixteen 10×10 cm squares by lines marked on the floor. Each mouse was placed in the center of the open field and allowed to explore freely the apparatus for 5 minutes. The apparatus ([…]) consisted of two acrylic compartments. The dark compartment (30×40 cm) and light compartment (40×40×40 cm, brightly illuminated at 600 lux) were separated by a divider with a 5.5×5.5 cm opening at floor level. Mice were placed into the dark side and allowed to move freely between the two chambers with the door open for 5 minutes. During behavior tests, a video camera was mounted directly above the arena to monitor animal activity and movement. An investigator unaware of the treatment reviewed the video and recorded: 1) line crossing (frequency of crossing grid lines with all four paws) and the frequency of rearing (standing on hind legs or leaning against the walls of the arena) to assess locomotor activity in open field test; and 2) the latency to first entry into lighted compartment (entering the lighted side with all four paws) and the total time spent on the lighted side to assess anxiety-like behavior in light/dark box test.
Following completion of video-EEG monitoring for recurrent seizures, all KA-infused mice were subjected to open field and light/dark box tests at 8 weeks post-SE. Control animals underwent infusion of PBS into the amygdala and subsequently i.v. infusion of Scr or pY816 peptide and were tested 8 weeks after PBS infusion. No differences were found between Scr and pY816 treated control animals and these groups were combined for analyses.

Substance | animals with initial spontaneous seizure within 3 days following SE [1] | number of spontaneous seizures ([1]; days 1-14 after SE) | number of spontaneous seizures ([1]; days 29-42 after SE) | spontaneous recurrent seizures per animal (range) ([1]; days 29-42 after SE) | BDNF-mediated increase of p-PLC γ-1/PLC γ-1 ratio (quantified, FIG. 10) ([2]; 10 μM) | inhibition of BDNF-mediated increased p-PLCγ1 783 ([2]; 10 μM) | latency to enter the lighted compartment [3] | time spent in lighted compartment [3] | latency to the onset of the first spontaneous seizure ([1]; 10 mg/kg i.v. immediately, 24 hr and 48 hr after SE, compared to control) | reduction in the number of spontaneous seizures compared to Scr ([1]; days 1-14 after SE) | reduction in the number of spontaneous seizures compared to Scr ([1]; days 29-42 after SE) | animals that exhibited no seizures ([1]; days 29-42 after SE, of eight treated) | inhibition of BDNF-mediated activation of PLCγ1 (pPLCγ1 783 immunoreactivity) ([2]; 0.1 μM, 90 mins preincubation, BDNF 10 ng/ml 15 mins) | inhibition of BDNF-induced increase of pPLCγ1 783 ([2]; 1 μM, 90 mins preincubation, BDNF 10 ng/ml 15 mins) | inhibition of BDNF-mediated PLCγ1 activation ([2]; 10 μM, 60 min preincubation, compared to Scr) | inhibition of BDNF mediated PLCγ1 activation ([2]; 10 μM, 90 min preincubation, compared to Scr) | inhibition of BDNF-induced increase of pPLCγ1 783 ([2]; 10 μM, 90 mins preincubation, BDNF 10 ng/ml 15 mins) | inhibition of BDNF-mediated PLCγ1 activation ([2]; 10 μM, 120 min preincubation, compared to Scr)
YGRKKRRQRRRLVApYQLKIAPNDLS (YGRKKRRQRRRLVA[pY]QLKIAPNDLS) [Scr, reference compound] | 5 of 8 | 18.1±1.7 | 16.5±3.5 | 7-36 seizures | ineffective | no inhibition was evident | prolonged latency | spent less time |  |  |  |  |  |  |  |  |  | 
YGRKKRRQRRR-LQNLAKASPVpYLDI (YGRKKRRQRRRLQNLAKASPV[pY]LDI) [pY816] | single | 2.4±0.6 | 1.5±0.4 | 1-3 seizures | inhibited the BDNF-mediated increase of p-PLC γ-1/PLC γ-1 ratio in a time dependent manner | inhibited BDNF-mediated increased p-PLCγ1 783 | significantly reduced latency | spent increased time | delayed | 86% | 90% | two | did not inhibit | limited the BDNF-induced increase of pPLCγ1 783 in a concentration dependent manner | 68.2% | 79.3% | limited the BDNF-induced increase of pPLCγ1 783 in a concentration dependent manner | 94.5%

Source: patent US11129870B2, “Compositions and methods for uncoupling TrkB receptor from PLC gamma 1 for the treatment of epilepsy and anxiety-like disorder” (DUKE UNIVERSITY, priority 2010, dated 2021)
